# Assay results from patent US7470715B2, “Estrogen modulators” (Pfizer Inc., priority 2005, dated 2008).
# Columns and labels:
# [1] = biological target: T1, ligand binding domain of the estrogen receptor alpha chain (ERαLBD) (Homo sapiens, UniProt P03372); assay: ER agonist cell assay (ERα), Huh-7 co-transfection, luciferase; type: cell-based; details: for EC50: Huh-7 cells co-transfected with pG5luc and ERαLBD, overnight incubation, luciferase; for ERα % of Max E2 Response: percent of the maximum estradiol fold change, Huh-7, pG5luc and ERαLBD
# T1 construct: expressed in transfected cells; host or cells: Huh-7 human hepatoma cells, transient transfection with FuGENE 6
# T1 sequence (P03372 311-547 limits assumed): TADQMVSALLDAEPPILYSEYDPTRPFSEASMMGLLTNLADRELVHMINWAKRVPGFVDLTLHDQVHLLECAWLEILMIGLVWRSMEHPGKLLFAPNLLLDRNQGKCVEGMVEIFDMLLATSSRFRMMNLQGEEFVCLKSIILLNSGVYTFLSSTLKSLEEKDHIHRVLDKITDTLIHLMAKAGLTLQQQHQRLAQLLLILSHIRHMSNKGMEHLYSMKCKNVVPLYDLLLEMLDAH
# Experimental: (§1) The compounds ability to mimic the effects of estrogen on the estrogen receptor were determined in a whole cell assay as described immediately below.
# (§2) Experimental Procedure for ER Agonist Cell Assay
# (§3) • Cell line and plasmids: The human hepatoma cell line Huh-7 was used for co-transfections. Cells were maintained in culture medium and split when they reached 80-90% confluency. Three plasmids were routinely used in the assay. pG5luc contained the firefly luciferase gene and was obtained from Promega. […] Cell Culture Media and Reagents:
# (§4) Culture medium: DMEM (phenol red free), 10% charcoal treated HyClone serum, 1% L-glutamine, and 1% penicillin/streptomycin
# (§5) Transfection medium: DMEM (phenol red free) and 10% charcoal treated HyClone serum
# (§6) Luciferase reagents: Dual-Glo Luciferase Kit (Promega cat #E2980) was used for determination of luciferase activity.
# (§7) Transient transfections were preformed using the lipophilic reagent FuGENE 6 (Roche). Cells were split and seeded at 7.2×10^6/150 cm^2 flask in 20 mL of transfection medium. 5-6 hrs later cells were co-transfected with either pG5luc and ERαLBD or pG5luc and ERβLBD(pm418). Transfected cells grew overnight and were then used the next day.
# (§8) Cells transfected 24 hrs earlier were harvested, counted, and seeded in wells containing compound at a density of 1×10^4 cells/well. […] Cells were incubated overnight at 37° C. and 5% CO2 in the presence of compound. The following day medium was aspirated from the wells and 100 ul of Dual-Glo™ Luciferase Reagent were added to each well. Plates were incubated at room temperature for 20 minutes and firefly luminescence was measured on a luminometer. Next, 50 ul of Dual-Gbo™ Stop & Glo® Reagent were added to each well and after 20 minutes at room temperature the Renilla luminescence was measured on a luminometer. Values from each well were normalized by dividing the firefly luminescence by the Renilla luminescence. Estradiol was used as the standard and run in each assay. The fold induction over background for each compound was compared to the maximum fold induction for estradiol in each assay. […] Those compounds that were not tested, or the data was unavailable are marked as NT.
# [2] = biological target: ligand binding domain of the estrogen receptor beta chain (ERβLBD) that contained a point mutation at amino acid residue 418 (pm418) (Homo sapiens, UniProt Q92731); assay: ER agonist cell assay (ERβ), Huh-7 co-transfection, luciferase; type: cell-based; details: for EC50: Huh-7 cells co-transfected with pG5luc and ERβLBD(pm418), overnight incubation, luciferase; for ERβ % of Max E2 Response: percent of the maximum estradiol fold change, Huh-7, pG5luc and ERβLBD(pm418)
# Experimental: as §1, §2, §3, §4, §5, §6, §7, §8
# [3] = test system: hairless female SKH, 1-hr mice; assay: Animal model for reversal of wrinkles: skin thickness model, topical dosing, skin thickness and hyaluronic acid; type: in vivo, mouse; details: QD, three days
# Text: Animal Model for Reversal of Wrinkles
# Uzuka et al. describes an increase in mouse back skin water content, hyaluronic acid (HA) content, and hyaluronic acid synthetase activity following topical application or subcutaneous injection of estradiol (Biochimica et Biophysica Acta, 627, 199-206, 1980; Biochimica et Biophysica Acta 673, 387-393, 1981). […] Thus, this model may be used to as a preliminary screen to assess the potential for estrogen modulators to alleviate wrinkles in human skin.
# The skin thickness model uses hairless female SKH, 1-hr mice. Mice aged to approximately 11 weeks are introduced into the laboratory environment and acclimated for at least 1 week prior to use in the study may be used. Each group typically consisted of 7 animals that may be run in parallel with vehicle and the positive control estradiol. Based on binding and/or cellular assay data, compounds are chosen for screening in this model. Those compounds include the products of Examples, 2, 9, 15, 46, 47, 48, 51, 52, 61, 135, and 137. Prior to topical application to mouse dorsal skin, a sufficient quantity of each compound is dissolved in a solvent generally consisting of ethanol and propylene glycol (70/30% v/v) (vehicle) to achieve the final concentration specified in Table C below. Animals are dosed topically QD or BID, for three days. Each dose consisted of 100 microliters of vehicle or drug applied uniformly to the entire dorsal surface (˜18 cm^2). All animals are sacrificed approximately 18-24 hours after the final dose. Skin thickness (ST) is measured using a caliper. HA is extracted from the skin and quantitated using commercially-available enzyme-linked immunosorbent assays (ELISAs)(HA).
# Data are presented as percent of the estradiol response after subtracting out the ST for vehicle-treated mouse skin. The estradiol response is set to 100% and the vehicle resoibse becines 0%.
Compound,EC50 [1] [nM],ERα % of Max E2 Response [1] [%],EC50 [2] [nM],ERβ % of Max E2 Response [2] [%],"HA (hyaluronic acid), percent of the estradiol response ([3]; 3% topical) [%]","ST (skin thickness), percent of the estradiol response ([3]; 3% topical) [%]","HA (hyaluronic acid), percent of the estradiol response ([3]; 1% topical) [%]","ST (skin thickness), percent of the estradiol response ([3]; 1% topical) [%]"
1-[3-(4-Hydroxy-phenyl)-4-phenyl-isoxazol-5-yl]-cyclopropanecarboxylic acid isopropyl ester [Example 61],75,21.1,> 10000,>1.83,38,32,–,–
"CCCC(O)C1(c2onc(-c3ccc(O)cc3)c2-c2ccccc2)CC1 (racemic) [Example 15, (±)-4-{5-[1-(1-Hydroxy-butyl)-cyclopropyl]-4-phenyl-isoxazol-3-yl}-phenol]",24.3,43.8,150,15.6,47,41,–,–
"CCCOCC1(c2onc(-c3ccc(O)cc3)c2-c2ccccc2)CC1 [Example 9, 4-[4-Phenyl-5-(1-propoxymethyl-cyclopropyl)-isoxazol-3-yl]-phenol]",177,40.2,41.3,2.63,58,49,–,–
O=C(OCC1(c2onc(-c3ccc(O)cc3)c2-c2ccccc2)CC1)C1CC1 [Example 51],152,63.8,84.2,75.2,–,–,35,19
"O=C(OCc1ccccc1)C1(c2onc(-c3ccc(O)cc3)c2-c2ccccc2)CC1 [Example 92, 1-[3-(4-Hydroxy-phenyl)-4-phenyl-isoxazol-5-yl]-cyclopropanecarboxylic acid benzyl ester]",57.2,19.7,> 10000,>1.04,–,–,–,–
"CC(C)(C)COC(=O)C1(c2onc(-c3ccc(O)cc3)c2-c2ccccc2)CC1 [Example 93, 1-[3-(4-Hydroxy-phenyl)-4-phenyl-isoxazol-5-yl]-cyclopropanecarboxylic acid 2,2-dimethyl-propyl ester]",33.8,20.4,> 10000,>0.813,–,–,–,–
"CCCCOC(=O)C1(c2onc(-c3ccc(O)cc3)c2-c2ccccc2)CC1 [Example 94, 1-[3-(4-Hydroxy-phenyl)-4-phenyl-isoxazol-5-yl]-cyclopropanecarboxylic acid butyl ester]",29.3,24.3,> 10000,>0.800,–,–,–,–
"O=C(OCC1CCC1)C1(c2onc(-c3ccc(O)cc3)c2-c2ccccc2)CC1 [Example 95, 1-[3-(4-Hydroxy-phenyl)-4-phenyl-isoxazol-5-yl]-cyclopropanecarboxylic acid cyclobutylmethyl ester]",13.6,21.5,> 10000,>0.728,–,–,–,–
"CCOC(=O)C1(c2onc(-c3ccc(O)c(F)c3)c2-c2ccccc2)CC1 [Example 97, 1-[3-(3-Fluoro-4-hydroxy-phenyl)-4-phenyl-isoxazol-5-yl]-cyclopropanecarboxylic acid ethyl ester]",–,19.7,–,1.08,–,–,–,–
"OCC1(c2onc(-c3ccc(O)c(F)c3)c2-c2ccccc2)CC1 [Example 98, 2-Fluoro-4-[5-(1-hydroxymethyl-cyclopropyl)-4-phenyl-isoxazol-3-yl]-phenol]",985,46,799,36.8,–,–,–,–
"CC(=O)C1(c2onc(-c3ccc(O)cc3)c2-c2ccccc2)CC1 [Example 101, 1-{1-[3-(4-Hydroxy-phenyl)-4-phenyl-isoxazol-5-yl]-cyclopropyl}-ethanone]",122,58.3,–,13.6,–,–,–,–
"CNCC1(c2onc(-c3ccc(O)cc3)c2-c2ccccc2)CC1 [Example 103, 4-[5-(1-methylaminomethyl-cyclopropyl)-4-phenyl-isoxazol-3-yl]-phenol]",–,10.2,–,1.21,–,–,–,–
"Oc1ccc(-c2noc(C3(c4nnc(-c5ccc(O)cc5O)o4)CC3)c2-c2ccccc2)cc1 [Example 118, 4-(5-{1-[3-(4-hydroxyphenyl)-4-phenylisoxazol-5-yl]cyclopropyl}-1,3,4-oxadiazol-2-yl)benzene-1,3-diol]",25.1,15,> 10000,>0.789,–,–,–,–
"CCOc1ccc(-c2nnc(C3(c4onc(-c5ccc(O)cc5)c4-c4ccccc4)CC3)o2)cc1 [Example 119, 4-(5-{1-[5-(4-ethoxyphenyl)-1,3,4-oxadiazol-2-yl]cyclopropyl}-4-phenylisoxazol-3-yl)phenol]",469,22.3,> 10000,>3.74,–,–,–,–
"Oc1ccc(-c2noc(C3(c4nnc(-c5ccccc5O)o4)CC3)c2-c2ccccc2)cc1 [Example 122, 2-(5-{1-[3-(4-hydroxyphenyl)-4-phenylisoxazol-5-yl]cyclopropyl}-1,3,4-oxadiazol-2-yl)phenol]",71.5,21.9,> 10000,>0.756,–,–,–,–
"COc1cccc(-c2nnc(C3(c4onc(-c5ccc(O)cc5)c4-c4ccccc4)CC3)o2)c1 [Example 123, 4-(5-{1-[5-(3-methoxyphenyl)-1,3,4-oxadiazol-2-yl]cyclopropyl}-4-phenylisoxazol-3-yl)phenol]",46.9,35.9,> 10000,>0.658,–,–,–,–
"Oc1ccc(-c2nnc(C3(c4onc(-c5ccc(O)cc5)c4-c4ccccc4)CC3)o2)cc1 [Example 124, 4-(5-{1-[5-(4-hydroxyphenyl)-1,3,4-oxadiazol-2-yl]cyclopropyl}-4-phenylisoxazol-3-yl)phenol]",152,24.4,> 10000,>0.539,–,–,–,–
"Oc1ccc(-c2noc(C3(c4nnc(-c5cccc(O)c5)o4)CC3)c2-c2ccccc2)cc1 [Example 125, 3-(5-{1-[3-(4-hydroxyphenyl)-4-phenylisoxazol-5-yl]cyclopropyl}-1,3,4-oxadiazol-2-yl)phenol]",419,22.1,> 10000,>0.535,–,–,–,–
"COc1ccc(-c2nnc(C3(c4onc(-c5ccc(O)cc5)c4-c4ccccc4)CC3)o2)cc1 [Example 129, 4-(5-{1-[5-(4-methoxyphenyl)-1,3,4-oxadiazol-2-yl]cyclopropyl}-4-phenylisoxazol-3-yl)phenol]",≥ 10000,19.1,> 10000,0.625,–,–,–,–
